Assay results from publication PMC8881002 (Journal of molecular structure, 2021).
pIC50, pKi: −log10 of the molar value.

These molecules were tested against T1, electric eel AChE (Electrophorus electricus, UniProt O42275) (assay: biochemical). Conditions: not given.
T1 sequence (O42275 24-633): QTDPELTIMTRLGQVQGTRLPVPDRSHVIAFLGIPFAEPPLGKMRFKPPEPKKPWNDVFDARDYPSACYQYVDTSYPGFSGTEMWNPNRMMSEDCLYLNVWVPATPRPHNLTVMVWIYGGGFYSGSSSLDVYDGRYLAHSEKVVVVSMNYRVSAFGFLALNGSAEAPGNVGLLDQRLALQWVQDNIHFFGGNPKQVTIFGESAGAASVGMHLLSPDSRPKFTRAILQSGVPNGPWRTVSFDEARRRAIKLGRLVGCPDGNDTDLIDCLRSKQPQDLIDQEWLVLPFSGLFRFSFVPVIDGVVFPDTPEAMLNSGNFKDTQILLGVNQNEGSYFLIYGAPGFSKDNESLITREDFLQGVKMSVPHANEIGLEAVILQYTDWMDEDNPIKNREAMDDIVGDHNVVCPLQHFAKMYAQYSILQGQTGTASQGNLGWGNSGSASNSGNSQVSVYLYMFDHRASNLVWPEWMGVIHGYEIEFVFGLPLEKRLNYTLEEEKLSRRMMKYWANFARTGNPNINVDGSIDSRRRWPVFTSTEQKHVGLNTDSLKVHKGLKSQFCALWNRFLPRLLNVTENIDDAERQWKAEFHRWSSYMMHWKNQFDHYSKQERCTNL
Work on COc1cc2c(cc1OC)C(=O)C(CC1CCN(Cc3ccncc3)CC1)C2 (centres unmarked) [Analog 3, 5,6-dimethoxy-2-((1-(pyridin-4-ylmethyl)piperidin-4-yl)methyl)-2,3-dihydro-1H-inden-1-one] yielded a pIC50 of 6.48.
COc1cc2c(cc1OC)C(=O)C(CC1CCN(Cc3ccc(C)nc3)CC1)C2 (centres unmarked) [Analog 12, 5,6-dimethoxy-2-((1-((6-methylpyridin-3-yl)methyl)piperidin-4-yl)methyl)-2,3-dihydro-1H-inden-1-one] gave a pIC50 of 6.03.
COc1cc2c(cc1OC)C(=O)C(CC1CCN(Cc3c(Cl)cncc3Cl)CC1)C2 (centres unmarked) [Analog 8, 2-((1-((3,5-dichloropyridin-4-yl)methyl)piperidin-4-yl)methyl)-5,6-dimethoxy-2,3-dihydro-1H-inden-1-one] was tested, and the pIC50 was 5.36.
For COc1cc2c(cc1OC)C(=O)C(CC1CCN(Cc3cccnc3F)CC1)C2 (centres unmarked) [Analog 9, 2-((1-((2-fluoropyridin-3-yl)methyl)piperidin-4-yl)methyl)-5,6-dimethoxy-2,3-dihydro-1H-inden-1-one], the pIC50 was 6.14.
In the case of COc1cc2c(cc1OC)C(=O)C(CC1CCN(Cc3cccnc3)CC1)C2 (centres unmarked) [Analog 2, 5,6-dimethoxy-2-((1-(pyridin-3-ylmethyl)piperidin-4-yl)methyl)-2,3-dihydro-1H-inden-1-one], the pIC50 was 7.29.
For COc1cc2c(cc1OC)C(=O)C(CC1CCN(Cc3ccnc(Br)c3)CC1)C2 (centres unmarked) [Analog 6, 2-((1-((2-bromopyridin-4-yl)methyl)piperidin-4-yl)methyl)-5,6-dimethoxy-2,3-dihydro-1H-inden-1-one], the pIC50 was 5.75.
With COc1cc2c(cc1OC)C(=O)C(CC1CCN(Cc3cccnc3Cl)CC1)C2 (centres unmarked) [Analog 10, 2-((1-((2-chloropyridin-3-yl)methyl)piperidin-4-yl)methyl)-5,6-dimethoxy-2,3-dihydro-1H-inden-1-one] the pIC50 was 6.38.
With COc1cc2c(cc1OC)C(=O)C(CC1CCN(Cc3ccnc(Cl)c3)CC1)C2 (centres unmarked) [Analog 5, 2-((1-((2-chloropyridin-4-yl)methyl)piperidin-4-yl)methyl)-5,6-dimethoxy-2,3-dihydro-1H-inden-1-one] the pIC50 was 5.69.
For COc1cc2c(cc1OC)C(=O)C(CC1CCN(Cc3ccncc3Cl)CC1)C2 (centres unmarked) [Analog 7, 2-((1-((3-chloropyridin-4-yl)methyl)piperidin-4-yl)methyl)-5,6-dimethoxy-2,3-dihydro-1H-inden-1-one], the pIC50 was 6.44.
With COc1cc2c(cc1OC)C(=O)C(CC1CCN(Cc3cccnc3Br)CC1)C2 (centres unmarked) [Analog 11, 2-((1-((2-bromopyridin-3-yl)methyl)piperidin-4-yl)methyl)-5,6-dimethoxy-2,3-dihydro-1H-inden-1-one] the pIC50 was 5.95.
In the case of COc1cc2c(cc1OC)C(=O)C(CC1CCN(Cc3ccnc4ccccc34)CC1)C2 (centres unmarked) [Analog 4, 5,6-dimethoxy-2-((1-(quinolin-4-ylmethyl)piperidin-4-yl)methyl)-2,3-dihydro-1H-inden-1-one], the pIC50 was 6.45.
For COc1cc2c(cc1OC)C(=O)C(CC1CCN(Cc3ccccn3)CC1)C2 (centres unmarked) [Analog 1, 5,6-dimethoxy-2-((1-(pyridin-2-ylmethyl)piperidin-4-yl)methyl)-2,3-dihydro-1H-inden-1-one], the pIC50 was 6.10.

Each molecule was assayed against T1, electric eel AChE (assay: Kinetic analysis of AChE inhibition). Conditions: not given.
Assay type: biochemical
COc1cc2c(cc1OC)C(=O)C(CC1CCN(Cc3cccnc3)CC1)C2 (centres unmarked) [Analog 2, 5,6-dimethoxy-2-((1-(pyridin-3-ylmethyl)piperidin-4-yl)methyl)-2,3-dihydro-1H-inden-1-one] showed a pKi of 7.21.

Same assay, conditions: Lineweaver-Burke double reciprocal plot, electric eel AChE
With COc1cc2c(cc1OC)C(=O)C(CC1CCN(Cc3cccnc3)CC1)C2 (centres unmarked) [Analog 2, 5,6-dimethoxy-2-((1-(pyridin-3-ylmethyl)piperidin-4-yl)methyl)-2,3-dihydro-1H-inden-1-one] the type of inhibition was “mixed-type inhibition”.
